Experimental data from publication PMC4253628, “Antiviral effects against EV71 of pimprinine and its derivatives isolated from Streptomyces sp” (Virology Journal, 2014).

Columns and labels:
HSV-1 [1] = experiment: Virus yield reduction assay, HSV-1; assay type: cell-based, herpes simplex virus 1; settings: Hep-2 cells, — = less than 90% inhibition
[2] = Cytotoxicity, MTT method, Hep-2 cells; assay type: cell-based; settings: human
Procedure: (§1) The 50% cell cytotoxic concentrations (CC50s) of compounds were calculated using SPSS software. SI were calculated from the ratio of CC50: EC50.

HSV-1 [3] = experiment: Plaque reduction assay, HSV-1 in Hep-2 cells; settings: for SI HSV-1, ratio CC50/EC50 / inhibition of HSV-1-induced plaque formation: Hep-2 cells; for EC50: Human alphaherpesvirus 1, HEp-2, read-out: EC50 HSV-1; for inhibition of HSV-1-induced plaque formation: inhibition achievable
Procedure: Confluent monolayers of Hep-2 cells, seeded in a 24-well plate, were infected with HSV-1 at a density of 60–80 plaque-forming units (PFU) per well and treated with media (pre-warmed DMEM containing 2% FBS, 0.8% low-melting agarose) mixed with or without the serially diluted tested compounds for the periods indicated following different procedures. The cells were incubated at 37°C until plaques appeared, followed by fixing with 10% formaldehyde and staining with 0.5% crystal violet. The plaques were counted by visual examination. The ratio of the number of plaques in the treated group to that in the untreated control was calculated.
A plaque reduction assay was performed to measure the inhibitory effects of the test compounds against HSV-1 infection.

H1N1 [4] = experiment: Inhibition of H1N1-induced CPE in MDCK cells; assay type: cell-based, influenza virus A/human/Hubei/86/2009 (H1N1); settings: MDCK cells; for EC50: Influenza A virus, H1N1, read-out: EC50 H1N1
[5] = Cytotoxicity, MTT method, MDCK cells; assay type: cell-based, canine; settings: dog, uninfected MDCK cells, host cells of H1N1: MDCK
Procedure: as §1

H1N1 [6] = experiment: Virus yield reduction assay, H1N1; assay type: cell-based, influenza virus A/human/Hubei/86/2009 (H1N1); settings: MDCK cells, — = less than 90% inhibition
Procedure: Virus yield reduction assays were also carried out to evaluate further the protective effects of the tested compounds.
The virus suspension, serially diluted 10-fold with DMEM containing 2% FBS, was inoculated to cells in a 96-well plate. After 1 h incubation at 37°C in 5% CO2, unbinding virus was washed out and DMEM maintenance medium supplemented with 2% FBS was added to the cells. After 2 days, the infected cells were monitored for cytopathic effects (CPEs). The virus titer was calculated by the Reed–Muench method.

EV71 [7] = settings: EV71, RD cells
Procedure: (§3) Cell viability was assessed by an MTT assay, which functions based on the reduction of a MTT into formazan dye by active mitochondria. The cells were treated with 100 μL of MTT (1 mg/mL, Sigma) and incubated at 37°C for 4 h. The reaction was blocked by DMSO and measured in a microplate reader (Bio-Tek Instruments) at 492 nm. The untreated control was arbitrarily set as 100%.
(§4) Confluent cell monolayers in 96-well dishes were infected with 100 TCID50 of corresponding virus dilution mixed with serial dilutions of tested compounds for 1 h at 37°C. Inocula were aspirated and the cells were then incubated with various concentrations of DMEM/tested compounds at 37°C, 5% CO2 for 48 h. CPE were observed microscopically and the viability of the cells was determined using MTT assays. […] The concentrations required for the tested compounds to achieve 50% protection of cells from virus-induced CPE were determined.

[8] = Cytotoxicity, ATPLite luminescence-based assay, HeLa cells; assay type: cell-based; settings: human
Description: (§2) The ATPLite assay may be more sensitive to cytotoxicity than the MTT method. For RD and Hep-2 cells, similar results were obtained, and for HeLa and MDCK cells, the values of CC50 from the ATPLite assay were smaller than those from MTT assays (Tables 1, 2 and 3).

EV71 [9] = experiment: microbe, parasite or virus in culture; settings: Enterovirus A, EV71, RD, 48 h, read-out: EC50, compound concentration required to achieve 50% protection from virus-induced cytopathogenicity
Procedure: as §3, §4

EV71 [10] = experiment: Release analysis, EV71 from RD cells; assay type: cell-based, Enterovirus 71; settings: 80 μM pimprinethine, 40 μM WS-30581 A or B; 12 h p.i.
[11] = Cytotoxicity, ATPLite luminescence-based assay, MDCK cells; assay type: cell-based, canine; settings: dog
Description: as §2

EV71 [12] = experiment: Progeny virus yield reduction, EV71 in RD cells; assay type: cell-based, Enterovirus 71; settings: for reduction in progeny virus titers relative to virus control: 80 μM; for EC90: Enterovirus A, EV71, RD cells, progeny viral yield, read-out: EC90, compound concentration required to achieve 90% virus yield reduction
EV71 [13] = experiment: Effective stage analysis, EV71 in RD cells; assay type: cell-based, Enterovirus 71; settings: 48 h; for virus titer reduction vs untreated cells: 80 μM, added post infection, EV71 100 TCID50; for viability at 80 µM: Enterovirus A, RD, added post infection (therapeutic), EV71 100 TCID50, read-out: viability rates of the infected cells
ADV-7 [14] = experiment: Inhibition of ADV-7-induced CPE in HeLa cells; settings: for SI ADV-7, ratio CC50/EC50: HeLa cells; for EC50: Human mastadenovirus B, HeLa, 48 h, read-out: EC50 ADV-7
Procedure: as §3, §4

[15] = Cytotoxicity, ATPLite luminescence-based assay, RD cells; assay type: cell-based; settings: human
Description: as §2

CVB3 [16] = experiment: Inhibition of CVB3-induced CPE in Hep-2 cells; settings: for EC50: Enterovirus B, CVB3, HEp-2, 48 h, read-out: EC50 CVB3; for SI CVB3, ratio CC50/EC50: Hep-2 cells
Procedure: as §3, §4

ADV-7 [17] = experiment: Virus yield reduction assay, ADV-7; assay type: cell-based, adenovirus 7; settings: Human mastadenovirus B; HeLa cells; read-out: EC90 ADV-7, concentration required to inhibit 90% virus yield
EV71 [18] = experiment: Dependence of anti-EV71 activity on virus inoculum (cell viability, MTT) in RD cells; assay type: cell-based, Enterovirus 71; settings: virus concentration above 10^4 TCID50
[19] = Cytotoxicity, ATPLite luminescence-based assay, Hep-2 cells; assay type: cell-based; settings: human
Description: as §2

[20] = Cytotoxicity, MTT method, uninfected RD cells; assay type: cell-based; settings: human
Procedure: as §1

EV71 [21] = experiment: Adsorption analysis, EV71 on RD cells; assay type: cell-based, Enterovirus 71; settings: 160 μM pimprinethine, 80 μM WS-30581 A, 80 μM WS-30581 B; EV71 10^4 TCID50; 2 h adsorption
CVB3 [22] = experiment: Virus yield reduction assay, CVB3; assay type: cell-based, Coxsackievirus B3; settings: Enterovirus B, CVB3; Hep-2 cells; — = less than 90% inhibition; read-out: EC90 CVB3, concentration required to inhibit 90% virus yield
EV71 [23] = experiment: Virucidal activity against EV71; assay type: cell-based, Enterovirus 71; settings: 80 μM pimprinethine, 40 μM WS-30581 A or 40 μM WS-30581 B; 24 h at 4°C; 10^3 TCID50
[24] = Cytotoxicity, MTT method, HeLa cells; assay type: cell-based; settings: human
Procedure: as §1

CVB3 [25] = experiment: Antiviral activity of MAO inhibitors against CVB3; assay type: cell-based, Coxsackievirus B3
EV71 [26] = experiment: Antiviral activity of MAO inhibitors against EV71; assay type: cell-based, Enterovirus 71
[27] = 100 TCID50, 48 h, CPE, — = less than 50% inhibition
[28] = 100 TCID50 EV71, RD cells, 10 h
[29] = uninfected Hep-2 cells, host cells of CVB3: Hep-2, MTT, 48 h, read-out: CC50 (CVB3)
[30] = RD cells, MTT, 48 h, mean ± SD of three experiments, read-out: CC50, compound concentration required to reduce cell viability by 50%
[31] = uninfected HeLa cells, host cells of ADV-7: HeLa, MTT, 48 h, read-out: CC50 (ADV-7)

Structure (SMILES): Nc1nc2c(ncn2COCCO)c(=O)[nH]1 [Acyclovir, reference compound]
- EC90 (HSV-1 [1]; Human alphaherpesvirus 1, read-out: EC90 HSV-1, concentration required to inhibit 90% virus yield): 24 ± 5 µM
- CC50 at 48 h [2]: > 2000 µM
- SI HSV-1, ratio CC50/EC50 (HSV-1 [3]): >181
- EC50 (HSV-1 [3]): 11 ± 1 µM

Structure (SMILES): NC12CC3CC(CC(C3)C1)C2 [Amantadine, reference compound]
- EC50 (H1N1 [4]; [27]): 73 ± 8 µM
- SI H1N1, ratio CC50/EC50 (H1N1 [4]): >27
- CC50 at 48 h [5]: > 2000 µM
- EC90 (H1N1 [6]; Influenza A virus, H1N1, read-out: EC90 H1N1, concentration required to inhibit 90% virus yield): 90 ± 12 µM

Structure (SMILES): CCc1ncc(-c2c[nH]c3ccccc23)o1 [Pimprinethine]
- SI (selectivity index), ratio CC50/EC50 (EV71 [7]): 24
- CC50 [8]: 550 ± 103 µM
- EC50 (EV71 [9]): 35 ± 4 µM
- EC90 HSV-1, concentration required to inhibit 90% virus yield (HSV-1 [1]): — (—, less than 50% or 90% inhibition)
- release of EV71 from RD cells (EV71 [10]): unaffected
- CC50 [11]: 406 ± 48 µM
- reduction in progeny virus titers relative to virus control (EV71 [12]; [28]): 3.0 log
- EC90 (EV71 [12]): 42 ± 3 µM
- inhibition of H1N1 infection (H1N1 [4]): negligible measurable inhibition
- EC50 H1N1 (H1N1 [4]; [27]): — (—, less than 50% or 90% inhibition)
- CC50 at 48 h [2, 29]: 256 ± 49 µM
- CC50 at 48 h [5]: 577 ± 73 µM
- EC90 H1N1, concentration required to inhibit 90% virus yield (H1N1 [6]): — (—, less than 50% or 90% inhibition)
- virus titer reduction vs untreated cells (EV71 [13]): approximately 5.0 log
- viability at 80 µM (EV71 [13]): ~100%
- SI ADV-7, ratio CC50/EC50 (ADV-7 [14]): 23
- EC50 (ADV-7 [14]): 33 ± 6 µM
- CC50 [15]: 656 ± 82 µM
- SI HSV-1, ratio CC50/EC50 (HSV-1 [3]): 6
- EC50 (HSV-1 [3]): 45 ± 3 µM
- inhibition of HSV-1-induced plaque formation (HSV-1 [3]): approximately 80%
- EC50 (CVB3 [16]): 22 ± 4 µM
- SI CVB3, ratio CC50/EC50 (CVB3 [16]): 12
- EC90 (ADV-7 [17]): 63 ± 5 µM
- anti-EV71 inhibition at excessive virus inoculum (EV71 [18]): Inhibition was eliminated
- CC50 [19]: 233 ± 36 µM
- CC50 at 48 h [20, 30]: 835 ± 20 µM
- virus titer during virus attachment (adsorption) (EV71 [21]): no significant decrease
- EC90 (CVB3 [22]): 58 ± 9 µM
- virus titers of EV71 mixture with vs without compound (virucidal activity) (EV71 [23]): No significant difference
- CC50 at 48 h [24, 31]: 750 ± 30 µM

Structure (SMILES): NC(=O)c1ncn([C@@H]2O[C@H](CO)[C@@H](O)[C@H]2O)n1 [Ribavirin, reference compound]
- SI (selectivity index), ratio CC50/EC50 (EV71 [7]): 12
- EC50 (EV71 [9]): 102 ± 68 µM
- reduction in progeny virus titers (EV71 [12]; 160 μM, 100 TCID50 EV71, RD cells, 10 h): ~2.0 log
- EC90 (EV71 [12]): 136 ± 49 µM
- CC50 at 48 h [2]: 1310 ± 385 µM
- SI ADV-7, ratio CC50/EC50 (ADV-7 [14]): 13
- EC50 (ADV-7 [14]): 116 ± 19 µM
- EC50 (CVB3 [16]): 90 ± 10 µM
- SI CVB3, ratio CC50/EC50 (CVB3 [16]): 15
- EC90 (ADV-7 [17]): 132 ± 22 µM
- CC50 at 48 h [20]: 1230 ± 355 µM
- virus titer during virus attachment (adsorption) (EV71 [21]): no significant decrease
- EC90 (CVB3 [22]): 103 ± 17 µM
- CC50 at 48 h [24]: 1520 ± 243 µM

Structure (SMILES): N[C@@H]1C[C@H]1c1ccccc1 [TCP]
- antiviral activity against CVB3 (CVB3 [25]): inactive
- antiviral activity against EV71 (EV71 [26]): inactive

Structure (SMILES): CCCCc1ncc(-c2c[nH]c3ccccc23)o1 [WS-30581 B]
- SI (selectivity index), ratio CC50/EC50 (EV71 [7]): 21
- EC50 (EV71 [9]): 11 ± 3 µM
- EC90 HSV-1, concentration required to inhibit 90% virus yield (HSV-1 [1]): — (—, less than 50% or 90% inhibition)
- release of EV71 from RD cells (EV71 [10]): unaffected
- reduction in progeny virus titers relative to virus control (EV71 [12]; [28]): 3.0 log
- EC90 (EV71 [12]): 18 ± 2 µM
- EC50 (H1N1 [4]; [27]): 24 ± 5 µM
- SI H1N1, ratio CC50/EC50 (H1N1 [4]): 9
- inhibition of H1N1 infection (H1N1 [4]): less than 70%
- CC50 at 48 h [2, 29]: 83 ± 6 µM
- CC50 at 48 h [5]: 215 ± 28 µM
- EC90 H1N1, concentration required to inhibit 90% virus yield (H1N1 [6]): — (—, less than 50% or 90% inhibition)
- virus titer reduction vs untreated cells (EV71 [13]): approximately 5.0 log
- viability at 80 µM (EV71 [13]): ~100%
- SI ADV-7, ratio CC50/EC50 (ADV-7 [14]): 24
- EC50 (ADV-7 [14]): 15 ± 2 µM
- CC50 [15]: 267 ± 31 µM
- SI HSV-1, ratio CC50/EC50 (HSV-1 [3]): 6
- EC50 (HSV-1 [3]): 14 ± 4 µM
- inhibition of HSV-1-induced plaque formation (HSV-1 [3]): approximately 80%
- EC50 (CVB3 [16]): 12 ± 2 µM
- SI CVB3, ratio CC50/EC50 (CVB3 [16]): 7
- EC90 (ADV-7 [17]): 48 ± 6 µM
- anti-EV71 inhibition at excessive virus inoculum (EV71 [18]): Inhibition was eliminated
- CC50 at 48 h [20, 30]: 229 ± 10 µM
- virus titer during virus attachment (adsorption) (EV71 [21]): no significant decrease
- EC90 (CVB3 [22]): 42 ± 6 µM
- virus titers of EV71 mixture with vs without compound (virucidal activity) (EV71 [23]): No significant difference
- CC50 at 48 h [24, 31]: 354 ± 14 µM

Structure (SMILES): C#CCN(C)Cc1ccccc1 [pargyline]
- antiviral activity against CVB3 (CVB3 [25]): inactive
- antiviral activity against EV71 (EV71 [26]): inactive
